Data reported in article PMC3838380, “Investigating the Allosteric Regulation of YfiN from Pseudomonas aeruginosa: Clues from the Structure of the Catalytic Domain” (PLoS ONE, 2013).

What was measured:
[1] = target: T1, YfiNHAMP-GGDEF (Pseudomonas aeruginosa, UniProt Q9I4L5); test: isothermal titration calorimetry; assay type: binding
T1 construct: gene tpbB; cytosolic HAMP-GGDEF portion, residues 183-435, C-terminal His-tag (pET24b), synthetic gene, E. coli BL21(DE3), about 28 kDa, monomeric by AUC
T1 sequence (Q9I4L5 183-435): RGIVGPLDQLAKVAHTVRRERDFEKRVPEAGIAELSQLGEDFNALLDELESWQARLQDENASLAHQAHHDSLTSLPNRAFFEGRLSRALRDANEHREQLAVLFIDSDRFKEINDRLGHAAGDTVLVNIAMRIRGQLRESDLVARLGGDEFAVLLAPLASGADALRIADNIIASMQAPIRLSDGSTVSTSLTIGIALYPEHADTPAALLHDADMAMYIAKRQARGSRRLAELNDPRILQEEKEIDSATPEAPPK
From the text: isothermal titration calorimetry on YfiNHAMP-GGDEF

[2] = target: T2, YfiNGGDEF (Pseudomonas aeruginosa, UniProt Q9I4L5); test: isothermal titration calorimetry; assay type: binding
T2 construct: gene tpbB
T2 sequence (Q9I4L5 232-435): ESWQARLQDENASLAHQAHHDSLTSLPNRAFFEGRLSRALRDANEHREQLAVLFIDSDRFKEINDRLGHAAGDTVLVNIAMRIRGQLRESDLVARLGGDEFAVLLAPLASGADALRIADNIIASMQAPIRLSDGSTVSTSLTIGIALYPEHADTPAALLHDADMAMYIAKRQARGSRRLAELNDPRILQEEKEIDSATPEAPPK
From the text: isothermal titration calorimetry on YfiNGGDEF

Compound Nc1nc2c(ncn2[C@@H]2O[C@H](COP(=O)(O)OP(=O)(O)OP(=O)(O)O)[C@@H](O)[C@H]2O)c(=O)[nH]1 [GTP] has a Kd [1] of 180 nM and a Kd [2] of 67 nM.
